11 compounds from ChEMBL document CHEMBL1201862, “PubChem BioAssay data set” (2004) can be followed below.

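Five compound concentrations were applied to cells in 96-well plates for 48 hours; endpoints were derived by simple linear interpolation of the resulting dose-response curve. GI50 = concentration required for 50% inhibition of growth.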 Calls of active or inactive are those of the source. No stated cut-off is given here; in the data, active = GI50 up to about 1.1 µM and inactive = higher.

Test systems include SK-MEL-2; KM12; LOX IMVI; HT-29; OVCAR-4; MOLT-4; NCI-H460; UACC-257; SF-539; K562; ACHN; HOP-62; NCI-H23; TK-10; RXF 393; HL-60; NCI-H226; RPMI-8226.
Holding throughout (assay): NCI tumour cell line growth inhibition, 48 h

As to `Cc1c(Cl)cccc1NC(=O)C(=O)C1C(=O)CC(C)(C)CC1=O`, the GI50 with SK-MEL-2, in the assay on KM12, with LOX IMVI, with HT-29, in the assay with OVCAR-4 and with MOLT-4 was > 100 µM (inactive) each time. For the same compound, the GI50 in the assay with NCI-H460, with UACC-257, with SF-539, with K562, with ACHN and in the assay with HOP-62 was > 100 µM (inactive) throughout. For the same compound, the GI50 in the assay on NCI-H23, with TK-10, in the assay with RXF 393, in the assay on HL-60, in the assay on NCI-H226 and in the assay with RPMI-8226 was > 100 µM (inactive) each time.

Turning to `O=C(C(=O)c1cc2ccccc2[nH]1)c1cc2ccccc2[nH]1`, the GI50 is > 347 µM (inactive) with SK-MEL-2; > 347 µM (inactive) with KM12; > 347 µM (inactive) in the assay on LOX IMVI; > 347 µM (inactive) in the assay with HT-29; 58.3 µM (inactive) in the assay with OVCAR-4; 24 µM (inactive) with MOLT-4. In addition, the GI50 with NCI-H460 is > 321 µM (inactive); with UACC-257, > 204 µM (inactive); in the assay with SF-539 it was > 347 µM (inactive); with K562, > 332 µM (inactive); in the assay on ACHN, > 347 µM (inactive); in the assay with HOP-62, > 183 µM (inactive). The GI50 in the assay on NCI-H23 was > 255 µM (inactive); with TK-10, > 347 µM (inactive); with RXF 393 it was 91.4 µM (inactive); in the assay on HL-60, 195 µM (inactive); in the assay with NCI-H226 it was > 347 µM (inactive); in the assay with RPMI-8226, 22 µM (inactive).

Consider `O=c1[nH]c(=O)n(C2OC(CO)C(O)C2O)cc1OCc1ccccc1` (stereo not given), for which the GI50 is > 100 µM (inactive) in the assay with SK-MEL-2; > 100 µM (inactive) in the assay on KM12; > 31.6 µM (inactive) with LOX IMVI; > 100 µM (inactive) with HT-29; > 100 µM (inactive) with OVCAR-4; > 100 µM (inactive) in the assay with MOLT-4. Besides, the GI50 in the assay on NCI-H460 was > 66.7 µM (inactive); in the assay with UACC-257, > 100 µM (inactive); with SF-539 it was > 100 µM (inactive); in the assay with K562 it was > 73.3 µM (inactive); in the assay with ACHN it was > 100 µM (inactive); in the assay with HOP-62, > 100 µM (inactive). For the same compound, the GI50 was > 100 µM (inactive) with NCI-H23; > 100 µM (inactive) in the assay with TK-10; > 57.4 µM (inactive) with RXF 393; > 52.8 µM (inactive) in the assay with HL-60; > 100 µM (inactive) with NCI-H226; > 57.9 µM (inactive) in the assay on RPMI-8226.

As for `N#CC(/C(=N/NC(=N)N)C(=O)Nc1ccccc1[N+](=O)[O-])c1nc(-c2ccc([N+](=O)[O-])cc2)cs1` (stereo not given), the GI50 in the assay with SK-MEL-2, in the assay with KM12, in the assay with LOX IMVI, with HT-29, in the assay with OVCAR-4 and with MOLT-4 was > 100 µM (inactive) throughout. The GI50 in the assay on NCI-H460, in the assay on UACC-257, in the assay with SF-539, in the assay on K562, in the assay with ACHN and with HOP-62 was > 100 µM (inactive) throughout. The GI50 with NCI-H23, in the assay with TK-10, with RXF 393, in the assay on HL-60, in the assay with NCI-H226 and with RPMI-8226 was > 100 µM (inactive) in each case.

On to `C=CCNC(=S)N/C=C1\C(=O)Oc2ccccc2C1=O`, for which the GI50 in the assay on SK-MEL-2 was 13.2 µM (inactive); in the assay with KM12, 87.5 µM (inactive); with LOX IMVI, 95.5 µM (inactive); in the assay with HT-29, > 100 µM (inactive); with OVCAR-4 it was > 100 µM (inactive); in the assay with MOLT-4, > 100 µM (inactive). Moreover, the GI50 in the assay on NCI-H460 was > 100 µM (inactive); with UACC-257 it was > 100 µM (inactive); with SF-539 it was 55.5 µM (inactive); in the assay with K562, > 100 µM (inactive); with ACHN it was 32.1 µM (inactive); in the assay with NCI-H23 it was > 100 µM (inactive). The GI50 with TK-10 is 64.7 µM (inactive); in the assay with RXF 393, 19.3 µM (inactive); in the assay on HL-60, > 100 µM (inactive); with NCI-H226, 28.9 µM (inactive); in the assay on RPMI-8226 it was > 100 µM (inactive).

With `CCOC(=O)C(C(=O)OCC)=C1C=C(c2ccccc2)c2ccccc21`, the GI50 in the assay on SK-MEL-2 was > 100 µM (inactive); with KM12, 37.4 µM (inactive); in the assay on LOX IMVI, 28.8 µM (inactive); with HT-29, 42.8 µM (inactive); in the assay on OVCAR-4, 38.3 µM (inactive); in the assay on MOLT-4, 30.5 µM (inactive). In addition, the GI50 was 31.8 µM (inactive) in the assay on NCI-H460; 73.1 µM (inactive) in the assay with UACC-257; 62.7 µM (inactive) with SF-539; 36.6 µM (inactive) in the assay on K562; 41 µM (inactive) with ACHN; 13.3 µM (inactive) in the assay on HOP-62. Besides, the GI50 in the assay with NCI-H23 was 54.5 µM (inactive); in the assay with TK-10 it was 79.1 µM (inactive); in the assay with RXF 393, 40.2 µM (inactive); in the assay on HL-60, 20.5 µM (inactive); in the assay with NCI-H226, 78.9 µM (inactive); with RPMI-8226 it was 16.6 µM (inactive).

For the compound `Brc1cccc(/C=N/C23CC4CC(CC(C4)C2)C3)c1`, the GI50 with SK-MEL-2, in the assay on KM12, with LOX IMVI, in the assay with HT-29, in the assay with OVCAR-4 and with MOLT-4 was > 100 µM (inactive) in each case. The GI50 with NCI-H460, in the assay with UACC-257, in the assay with SF-539, in the assay on K562, in the assay with ACHN and with HOP-62 was > 100 µM (inactive) throughout. The GI50 in the assay with NCI-H23, in the assay on TK-10, in the assay with RXF 393, with HL-60, in the assay on NCI-H226 and in the assay on RPMI-8226 was > 100 µM (inactive) each time.

Consider `CCCCCCCCC(O)C#CC(N)=O` (stereo not given), for which the GI50 is 13.3 µM (inactive) in the assay with SK-MEL-2; 11.7 µM (inactive) in the assay on LOX IMVI; 12.1 µM (inactive) with HT-29; 2.51 µM (inactive) in the assay with OVCAR-4; 16.9 µM (inactive) in the assay on MOLT-4; 9.1 µM (inactive) in the assay on NCI-H460. Also, the GI50 with UACC-257 was 13 µM (inactive); with SF-539, 12.5 µM (inactive); in the assay on K562, 13.3 µM (inactive); in the assay on ACHN, 12.4 µM (inactive); in the assay on NCI-H23, 17.6 µM (inactive); in the assay on TK-10, 16 µM (inactive). Further, the GI50 with RXF 393 is 13.7 µM (inactive); in the assay with HL-60 it was 10.8 µM (inactive); in the assay with NCI-H226 it was 10.8 µM (inactive); in the assay on RPMI-8226, 7.48 µM (inactive).

`CC(=O)Nc1ccc(S(=O)(=O)N/N=C/CN2C(=O)c3ccccc3C2=O)cc1`: the GI50 in the assay on SK-MEL-2, in the assay with KM12, with LOX IMVI, with HT-29, in the assay with OVCAR-4 and in the assay with MOLT-4 was > 100 µM (inactive) each time. In addition, the GI50 with NCI-H460, in the assay on UACC-257, in the assay on SF-539, in the assay on K562, in the assay with ACHN and with HOP-62 was > 100 µM (inactive) in each case. In addition, the GI50 in the assay with NCI-H23 is > 100 µM (inactive); in the assay with TK-10, > 100 µM (inactive); with RXF 393, 85.1 µM (inactive); in the assay on HL-60, > 100 µM (inactive); with NCI-H226, > 100 µM (inactive); with RPMI-8226 it was > 100 µM (inactive).

Take `COc1ccc(CN[C@H]2CCc3cc(OC)c(OC)c(OC)c3-c3ccc(SC)c(=O)cc32)c(OC)c1OC`: the GI50 is 0.0282 µM (active) in the assay on SK-MEL-2; 0.0308 µM (active) in the assay on KM12; 0.0352 µM (active) with LOX IMVI; 0.0205 µM (active) in the assay with HT-29; 0.0343 µM (active) in the assay with OVCAR-4; 0.0361 µM (active) with MOLT-4. Further, the GI50 in the assay with NCI-H460 was 0.026 µM (active); in the assay with UACC-257, 0.0811 µM (active); in the assay on SF-539 it was 0.0211 µM (active); in the assay with K562, 0.0346 µM (active); in the assay on ACHN, 0.063 µM (active); with HOP-62, 0.0319 µM (active). Moreover, the GI50 with NCI-H23 is 0.0219 µM (active); in the assay on TK-10, 0.0849 µM (active); with RXF 393 it was 0.0181 µM (active); in the assay on HL-60, 0.0266 µM (active); in the assay with NCI-H226, 0.0237 µM (active); in the assay with RPMI-8226, 0.0352 µM (active).

Regarding `O=CC1CCC=CC1NC(=O)OCc1ccccc1` (stereo not given), the GI50 is 38.5 µM (inactive) in the assay with SK-MEL-2; 47 µM (inactive) with KM12; 48.4 µM (inactive) in the assay with LOX IMVI; 51.4 µM (inactive) in the assay with HT-29; 94.6 µM (inactive) in the assay on OVCAR-4; 44.5 µM (inactive) in the assay on MOLT-4. Also, the GI50 was 59.3 µM (inactive) with NCI-H460; > 100 µM (inactive) with UACC-257; 23 µM (inactive) in the assay on SF-539; 4.68 µM (inactive) in the assay on K562; > 100 µM (inactive) in the assay with ACHN; > 100 µM (inactive) in the assay on HOP-62. The GI50 in the assay with NCI-H23 was > 100 µM (inactive); in the assay on TK-10, 53.3 µM (inactive); with RXF 393 it was 54.6 µM (inactive); in the assay with HL-60, 7.14 µM (inactive); in the assay on NCI-H226, > 100 µM (inactive); in the assay with RPMI-8226, 40.5 µM (inactive).
